In patent US4992421A, “Luteinizing hormone releasing hormone antagonist” (priority 1988, dated 1991):
pKi: −log10 of the molar value.

Tests used:
[1] = test system: serum testosterone; conditions: given orally to patients, 200 to 1200 mg daily; cited from earlier work
[2] = target: T1, LHRH receptors (rat pituitary membranes) (Rattus norvegicus, UniProt P30969); experiment: LHRH radioligand receptor binding assay; conditions: radioiodinated [D-Leu6-des Gly10]-LHRH ethyl amide 50 pM, 2 hours at 4° C., read-out: LHRH RECEPTOR BINDING AFFINITY KI
T1 construct: Pituitary membranes containing LHRH receptors are prepared in batches from quick-frozen rat pituitaries; tissue Hilltop Labs; host or cells: rat pituitary membranes
T1 sequence (P30969 1-327): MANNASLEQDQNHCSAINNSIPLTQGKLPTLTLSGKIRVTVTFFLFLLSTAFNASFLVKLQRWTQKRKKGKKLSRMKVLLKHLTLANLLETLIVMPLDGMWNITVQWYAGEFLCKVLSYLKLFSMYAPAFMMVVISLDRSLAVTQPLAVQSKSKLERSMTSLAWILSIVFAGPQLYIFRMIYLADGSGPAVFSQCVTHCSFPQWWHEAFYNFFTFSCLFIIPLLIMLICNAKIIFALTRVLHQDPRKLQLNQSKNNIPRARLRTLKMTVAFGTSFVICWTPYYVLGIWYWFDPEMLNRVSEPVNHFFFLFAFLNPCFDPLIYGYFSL
Protocol: Receptor Binding. A radioligand receptor binding assay is performed in a similar way to that described in the literature (J. Marion et al., Mol. Pharmacol. 19 399 (1981)). [D-Leu^6 -des Gly^10 ]-LHRH ethyl amide was radioiodinated by the chloramine-T method and used as the radioligand. Pituitary membranes containing LHRH receptors are prepared in batches from quick-frozen rat pituitaries obtained from Hilltop Labs. The radioligand (50 pM), receptors, and compounds to be tested are coincubated for 2 hours at 4° C. Bound ligand is separated from free ligand via centrifugation and aspiration. Compounds are tested at six half-log concentration increments, and the equilibrium dissociation constant (KI) is calculated from the concentration which displaces 50% of specifically bound radioligand.

[3] = in vivo; cited from earlier work

CC(=O)N1CCN(c2ccc(OCC3COC(Cn4ccnc4)(c4ccc(Cl)cc4Cl)O3)cc2)CC1 (stereo not drawn) [Ketoconazole]
suppression of serum testosterone [1]: dose dependent suppression of serum testosterone | pKi [2]: 5.70

CCNC(=O)[C@@H]1CCCN1C(=O)[C@H](CCCNC(=N)N)NC(=O)[C@H](CC(C)C)NC(=O)[C@@H](CC(C)C)NC(=O)[C@H](Cc1ccc(O)cc1)NC(=O)[C@H](CO)NC(=O)[C@H](Cc1c[nH]c2ccccc12)NC(=O)[C@H](Cc1c[nH]cn1)NC(=O)[C@@H]1CCC(=O)N1 [leuprolide]
bioavailable from the duodenum [3]: less than 1%
